Reference: US20250129096A1, “ANNULATED 2-AMINO-3-CYANO THIOPHENES AND DERIVATIVES FOR THE TREATMENT OF CANCER” (Boehringer Ingelheim Int'l GmbH Corp., priority 2021, published 2025)
≈ marks a conversion by molar mass, not a printed value. Like-named read-outs stand apart in the source and are kept apart here.

Tests used:
[1] = molecular target: T1, KRAS (G12D)::SOS1 (Homo sapiens, UniProt P01116, G12D); experiment: KRAS::SOS1 AlphaScreen binding assay, KRAS G12D
T1 construct: KRAS (G12D) 1-169, N-terminal 6His-tag, C-terminal avi-tag; 6His-tag (N); purchased Xtal BioStructures, Inc. (KRAS G12D); Viva Biotech Ltd (SOS1)
Protocol: (§1) Low IC50 values in this assay setting are indicative of strong inhibition of protein-protein interaction between SOS1 and KRAS:
(§2) These assays measure the inhibitory effect of compounds on KRAS mutant protein-protein interactions using the Alpha Screen technology by Perkin Elmer.
(§3) For the chosen highest assay concentration of 100 μM, 150 nL of compound solution are transferred from a 10 mM DMSO compound stock solution. A series of eleven fivefold dilutions per compound are transferred to the assay plate, compound dilutions are tested in duplicates. DMSO are added as backfill to a total volume of 150 nL.
(§4) The assays run on a fully automated robotic system in a darkened room below 100 Lux. To 150 nl of compound dilution 10 μl of a mix including KRAS mutant protein, SOS1 (final assay concentrations see above) and GDP nucleotide (Sigma G7127; final assay concentration 10 μM) in assay buffer (1×PBS, 0.1% BSA, 0.05% Tween 20) are added into columns 1-24. After 30 minutes incubation time 5 μl of Alpha Screen bead mix in assay buffer are added into columns 1-23.
(§5) Plates are kept at room temperature in a darkened incubator. After an additional 60 minutes incubation time the signal is measured in a PerkinElmer Envision HTS Multilabel Reader using the AlphaScreen specs from PerkinElmer.
(§6) IC50 values are calculated and analyzed with Boehringer Ingelheim's MEGALAB IC50 application using a 4 parametric logistic model.

[2] = molecular target: T2, KRAS (G12C)::SOS1 (Homo sapiens, UniProt P01116, C118S/C51S/C80L/G12C); experiment: KRAS::SOS1 AlphaScreen binding assay, KRAS G12C
T2 construct: KRAS (G12C) 1-169, N-terminal 6His-tag for purification, cleaved off; 6His-tag (N, cleaved yes)
Protocol: as §1, §2, §3, §4, §5, §6

[3] = molecular target: KRAS G12D Ba/F3 cells (Homo sapiens, UniProt P01116, G12D, cells depend on it); experiment: Ba/F3 proliferation assay, KRAS G12D; type: cell-based; conditions: 72 h, AlamarBlue; read-out: KRAS G12D Ba/F3 IC50
Protocol: (§7) To generate KRASG12-dependent Ba/F3 models, Ba/F3 cells are transduced with retroviruses containing vectors that harbor KRASG12 isoforms. Platinum-E cells (Cell Biolabs) are used for retrovirus packaging. Retrovirus is added to Ba/F3 cells. To ensure infection, 4 μg/mL polybrene is added and cells are spinfected. […] Cells with an infection efficiency of 10% to 20% are further cultivated and puromycin selection with 1 μg/mL is initiated. As a control, parental Ba/F3 cells are used to show selection status. Selection is considered successful when parental Ba/F3 cells cultures died. To evaluate the transforming potential of KRASG12 mutations, the growth medium is no longer supplemented with IL-3. Ba/F3 cells harboring the empty vector are used as a control. Approximately ten days before conducting the experiments, puromycin is left out. […] All treatments are performed in technical duplicates. […] AlamarBlue™(ThermoFisher), a viability stain, is added and fluorescence measured in the PerkinElmer Envision HTS Multilabel Reader. The raw data are imported into and analyzed with the Boehringer Ingelheim proprietary software MegaLab (curve fitting based on the program PRISM, GraphPad Inc.).

[4] = molecular target: KRAS G12C Ba/F3 cells (Homo sapiens, UniProt P01116, G12C, cells depend on it); experiment: Ba/F3 proliferation assay, KRAS G12C; type: cell-based; conditions: 72 h, AlamarBlue; read-out: KRAS G12C Ba/F3 IC50
Protocol: as §7

[5] = Solubility measurement (DMSO solution precipitation method); type: physicochemical; conditions: aqueous buffer, kinetic from dmso stock, ambient temperature
Protocol: The DMSO solution is diluted with an aqueous medium (McIlvaine buffer with pH=4.5 or 6.8) to a final concentration of 250 μM. After 24 h of shaking at ambient temperature a potentially formed precipitate is removed by filtration. The concentration of the test compound in the filtrate is determined by LC-UV methods by calibrating the signal to the signal of a reference solution with complete dissolution of the test compound in acetonitrile/water (1:1) with known concentration.

[6] = molecular target: T3, KRAS (WT)::SOS1 (Homo sapiens, UniProt P01116, C118S); experiment: KRAS::SOS1 AlphaScreen binding assay, KRAS WT
T3 construct: KRAS (WT) 1-169, N-terminal 6His-tag for purification, cleaved off; 6His-tag (N, cleaved yes); TEV cleavage site
Protocol: as §1, §2, §3, §4, §5, §6

[7] = Metabolic (microsomal) stability assay, HLM; type: in vitro ADME; conditions: human liver microsomes, 1 μM test compound, predicted clearance as percent of liver blood flow
Protocol: The metabolic degradation of the test compound is assayed at 37° C. with pooled liver microsomes (mouse (MLM), rat (RLM) or human (HLM)). The final incubation volume of 48 μL per time point contains TRIS buffer (pH 7.5; 0.1 M), magnesium chloride (6.5 mM), microsomal protein (0.5 mg/mL for mouse/rat, 1 mg/mL for human specimens) and the test compound at a final concentration of 1 μM. Following a short preincubation period at 37° C., the reactions are initiated by addition of 12 μL beta-nicotinamide adenine dinucleotide phosphate, reduced form (NADPH, 10 mM) and terminated by transferring an aliquot into solvent after different time points (0, 5, 15, 30, 60 min). Additionally, the NADPH-independent degradation is monitored in incubations without NADPH, terminated at the last time point by addition of acetonitrile. The quenched incubations are pelleted by centrifugation (4,000 rpm, 15 min). An aliquot of the supernatant is assayed by LC-MS/MS to quantify the concentration of parent compound in the individual samples.
In vitro intrinsic clearance (CLint, in vitro) is calculated from the time course of the disappearance of the test drug during the microsomal incubation. Each plot is fitted to the first-order elimination rate constant as C(t)=C0*exp(−ke*t), where C(t) and C0 are the concentration of unchanged test drug at incubation time t and that at preincubation and ke is the disappearance rate constant of the unchanged drug. Subsequently, CLint, in vitro (μL min^−1·amount protein) values are converted to predicted CLint, in vivo (mL min^−1 kg^−1) from incubation parameters according to the equation CLint, in vivo=CLint, in vitro×(incubation volume (ml)/amount protein (mg))×(amount protein (mg)/g liver tissue)×(liver weight/body wt.). For better across species comparison the predicted clearance is expressed as percent of the liver blood flow [% QH] (mL min^−1 kg^−1) in the individual species. In general, high stability (corresponding to low % QH) of the compounds across species is desired.

[8] = molecular target: KRAS G12V Ba/F3 cells (Homo sapiens, UniProt P01116, G12V, cells depend on it); experiment: Ba/F3 proliferation assay, KRAS G12V; type: cell-based; conditions: 72 h, AlamarBlue; read-out: KRAS G12V Ba/F3 IC50
Protocol: as §7

[9] = McIlvaine buffer pH 4.5, 24 h, read-out: solubility pH 4.5
[10] = McIlvaine buffer pH 6.8, 24 h, read-out: solubility pH 6.8

Sequence of KRAS G12D Ba/F3 cells (P01116 whole entry G12D, canonical isoform): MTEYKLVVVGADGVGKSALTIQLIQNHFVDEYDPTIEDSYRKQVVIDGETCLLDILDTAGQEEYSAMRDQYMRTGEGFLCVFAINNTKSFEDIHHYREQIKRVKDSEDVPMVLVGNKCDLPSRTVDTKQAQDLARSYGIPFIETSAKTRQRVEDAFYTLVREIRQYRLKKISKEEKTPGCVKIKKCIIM
T2 sequence (P01116 1-169 isoform P01116-2 G12C/C51S/C80L/C118S): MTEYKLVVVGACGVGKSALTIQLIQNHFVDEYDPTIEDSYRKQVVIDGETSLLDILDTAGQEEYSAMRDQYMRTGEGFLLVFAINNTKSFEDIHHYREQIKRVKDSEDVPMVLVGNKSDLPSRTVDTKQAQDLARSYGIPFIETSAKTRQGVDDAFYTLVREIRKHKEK
T1 sequence (P01116 1-169 isoform P01116-2 G12D): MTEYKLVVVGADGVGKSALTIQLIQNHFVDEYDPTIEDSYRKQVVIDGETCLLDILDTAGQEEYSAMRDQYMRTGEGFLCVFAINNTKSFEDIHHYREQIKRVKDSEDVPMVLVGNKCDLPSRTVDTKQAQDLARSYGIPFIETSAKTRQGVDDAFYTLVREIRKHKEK
Sequence of KRAS G12C Ba/F3 cells (P01116 whole entry G12C): as the sequence (P01116 whole entry G12D, canonical isoform) above, with D12C counted along it
T3 sequence (P01116 1-169 isoform P01116-2 C118S): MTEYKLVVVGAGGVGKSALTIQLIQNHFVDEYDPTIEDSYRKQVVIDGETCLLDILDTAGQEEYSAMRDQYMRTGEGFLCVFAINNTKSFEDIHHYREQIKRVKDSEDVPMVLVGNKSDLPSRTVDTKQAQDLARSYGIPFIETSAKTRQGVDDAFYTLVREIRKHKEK
Sequence of KRAS G12V Ba/F3 cells (P01116 whole entry G12V): as the sequence (P01116 whole entry G12D, canonical isoform) above, with D12V counted along it

Row | SMILES | IC50 [1] [nM] | IC50 [2] [nM] | GI50 [3] [nM] | GI50 [4] [nM] | solubility at 24 h [5, 9] [µg/mL] | solubility at 24 h [5, 10] [µg/mL] | IC50 [6] [nM] | HLM QH [7] [%] | GI50 [8] [nM]
1 | C[C@H](Oc1nccc(-c2n[nH]c3c2CCCC32CCCc3sc(N)c(C#N)c32)n1)[C@@H]1CCCN1C (stereo partly drawn) [IIIa-1] | 16 | 28 | 697 | 930 |  |  |  |  | 
2 | C[C@H]1CN(C2CCOCC2)CCCN1c1nccc(-c2noc3c2CCC[C@@]32CCCc3sc(N)c(C#N)c32)n1 (single isomer, unassigned) [IIg-1] | 4 | 10 | 23 | 10 | 107 (≈ 191 µM) | < 1 | 25 | >88 | 
3 | C[C@H]1CNCCCN1c1cccc(-c2onc3c2CCC[C@@]32CCCc3sc(N)c(C#N)c32)n1 [Ib-3] | 8 | 19 |  | 317 |  |  |  | <24 | 
4 | C[C@H](Oc1nccc(-c2nnn3c2CCCC32CCCc3sc(N)c(C#N)c32)n1)[C@@H]1CCCN1C (stereo partly drawn) [IVa-1] | 18 | 56 | 381 | 521 |  |  |  | 80 | 
5 | C[C@H]1CNCCCN1c1nccc(-c2nn(C)c3c2CCC32CCCc3sc(N)c(C#N)c32)n1 (stereo partly drawn) [IIIb-1] | 1770 | 1590 | 15100 | 11500 |  |  |  | 31 | 10400

Second part, the compound after the results:

Row | IC50 [1] [nM] | IC50 [2] [nM] | GI50 [3] [nM] | GI50 [4] [nM] | solubility at 24 h [5, 9] [µg/mL] | solubility at 24 h [5, 10] [µg/mL] | IC50 [6] [nM] | HLM QH [7] [%] | GI50 [8] [nM] | SMILES
6 | 4 | 12 | 174 | 123 | > 110 | < 1 |  |  |  | C[C@H]1CN(C2CCOC2)CCCN1c1nccc(-c2onc3c2CCC[C@@]32CCCc3sc(N)c(C#N)c32)n1 (stereo partly drawn) [Ig-2]
7 | 3 | 6 | 88 | 108 | > 153 | 76 (≈ 142 µM) | 21 | >88 |  | C[C@@H](O)CN1CCCN(c2nccc(-c3onc4c3CCC[C@@]43CCCc4sc(N)c(C#N)c43)n2)[C@@H](C)C1 [Ig-4]
8 | 3 | 8 | 48 | 89 | 23 (≈ 43.4 µM) | 10 (≈ 18.9 µM) |  | >88 |  | C[C@H]1CN(CC2CC2)CCCN1c1nccc(-c2onc3c2CCC[C@@]32CCCc3sc(N)c(C#N)c32)n1 [Ig-1]
